Read-outs that look alike come from different tables or passages of the source.
Key:
Type in all cases: cell-based
[1] = biological target: T1, rat α1B+α2b+β1b channels (N-type channels) (Rattus norvegicus, UniProt Q02294); experiment: Whole cell patch recordings, N-type calcium channel block (Examples 1 and 4); settings: block of N-type calcium channels, HEK cells, 5 mM barium as charge carrier
T1 construct: expressed in transfected cells
Method: Antagonist activity was measured using whole cell patch recordings on human embryonic kidney cells either stably or transiently expressing rat α1B+α2b+β1b channels (N-type channels) with 5 mM barium as a charge carrier.
For transient expression, host cells, such as human embryonic kidney cells, HEK 293 (ATCC# CRL 1573) were grown in standard DMEM medium supplemented with 2 mM glutamine and 10% fetal bovine serum. HEK 293 cells were transfected by a standard calcium-phosphate-DNA coprecipitation method using the rat α1B+β1b+α2δ N-type calcium channel subunits in a vertebrate expression vector (for example, see Current Protocols in Molecular Biologyl ).
After an incubation period of from 24 to 72 hrs the culture medium was removed and replaced with external recording solution (see below). Whole cell patch clamp experiments were performed using an Axopatch 200B amplifier (Axon Instruments, Burlingame, Calif.) linked to an IBM compatible personal computer equipped with pCLAMP software. Borosilicate glass patch pipettes (Sutter Instrument Co., Novato, Calif.) were polished (Microforge, Narishige, Japan) to a resistance of about 4 MΩ when filled with cesium methanesulfonate internal solution (composition in MM: 109 CsCH3SO4, 4 MgCl2, 9 EGTA, 9 HEPES, pH 7.2). Cells were bathed in 5 mM Ba^++ (in mM: 5 BaCl2, 1 MgCl2, 10 HEPES, 40 tetraethylammonium chloride, 10 glucose, 87.5 CsCl pH 7.2). Current data shown were elicited by a train of 100 ms test pulses at 0.066 Hz from −100 mV and/or −80 mV to various potentials (min. −20 mV, max. +30 mV). Drugs were perfused directly into the vicinity of the cells using a microperfusion system.
Normalized dose-response curves were fit (Sigmaplot 4.0, SPSS Inc., Chicago, Ill.) by the Hill equation to determine IC50 values. Steady-state inactivation curves were plotted as the normalized test pulse amplitude following 5 s inactivating prepulses at +10 mV increments. Inactivation curves were fit (Sigmaplot 4.0) with the Boltzman equation, Ipeak (normalized)=1/(1+exp((V−Vh)z/25.6)), where V and Vh are the conditioning and half inactivation potentials, respectively, and z is the slope factor.

[2] = biological target: T2, N-type calcium channels (α1B+α2δ+β1b cDNA subunits) (Rattus norvegicus, UniProt Q02294); experiment: Whole cell patch clamp, tonic and frequency dependent block, N-type channels in HEK 293 (Example 5); settings: for % Block (100 nM) 0.03 Hz: 0.03 Hz (tonic block); for % Block (100 nM) 0.2 Hz: 0.2 Hz (frequency dependent block)
T2 construct: expressed in transfected cells
T2 sequence (Q02294 whole entry): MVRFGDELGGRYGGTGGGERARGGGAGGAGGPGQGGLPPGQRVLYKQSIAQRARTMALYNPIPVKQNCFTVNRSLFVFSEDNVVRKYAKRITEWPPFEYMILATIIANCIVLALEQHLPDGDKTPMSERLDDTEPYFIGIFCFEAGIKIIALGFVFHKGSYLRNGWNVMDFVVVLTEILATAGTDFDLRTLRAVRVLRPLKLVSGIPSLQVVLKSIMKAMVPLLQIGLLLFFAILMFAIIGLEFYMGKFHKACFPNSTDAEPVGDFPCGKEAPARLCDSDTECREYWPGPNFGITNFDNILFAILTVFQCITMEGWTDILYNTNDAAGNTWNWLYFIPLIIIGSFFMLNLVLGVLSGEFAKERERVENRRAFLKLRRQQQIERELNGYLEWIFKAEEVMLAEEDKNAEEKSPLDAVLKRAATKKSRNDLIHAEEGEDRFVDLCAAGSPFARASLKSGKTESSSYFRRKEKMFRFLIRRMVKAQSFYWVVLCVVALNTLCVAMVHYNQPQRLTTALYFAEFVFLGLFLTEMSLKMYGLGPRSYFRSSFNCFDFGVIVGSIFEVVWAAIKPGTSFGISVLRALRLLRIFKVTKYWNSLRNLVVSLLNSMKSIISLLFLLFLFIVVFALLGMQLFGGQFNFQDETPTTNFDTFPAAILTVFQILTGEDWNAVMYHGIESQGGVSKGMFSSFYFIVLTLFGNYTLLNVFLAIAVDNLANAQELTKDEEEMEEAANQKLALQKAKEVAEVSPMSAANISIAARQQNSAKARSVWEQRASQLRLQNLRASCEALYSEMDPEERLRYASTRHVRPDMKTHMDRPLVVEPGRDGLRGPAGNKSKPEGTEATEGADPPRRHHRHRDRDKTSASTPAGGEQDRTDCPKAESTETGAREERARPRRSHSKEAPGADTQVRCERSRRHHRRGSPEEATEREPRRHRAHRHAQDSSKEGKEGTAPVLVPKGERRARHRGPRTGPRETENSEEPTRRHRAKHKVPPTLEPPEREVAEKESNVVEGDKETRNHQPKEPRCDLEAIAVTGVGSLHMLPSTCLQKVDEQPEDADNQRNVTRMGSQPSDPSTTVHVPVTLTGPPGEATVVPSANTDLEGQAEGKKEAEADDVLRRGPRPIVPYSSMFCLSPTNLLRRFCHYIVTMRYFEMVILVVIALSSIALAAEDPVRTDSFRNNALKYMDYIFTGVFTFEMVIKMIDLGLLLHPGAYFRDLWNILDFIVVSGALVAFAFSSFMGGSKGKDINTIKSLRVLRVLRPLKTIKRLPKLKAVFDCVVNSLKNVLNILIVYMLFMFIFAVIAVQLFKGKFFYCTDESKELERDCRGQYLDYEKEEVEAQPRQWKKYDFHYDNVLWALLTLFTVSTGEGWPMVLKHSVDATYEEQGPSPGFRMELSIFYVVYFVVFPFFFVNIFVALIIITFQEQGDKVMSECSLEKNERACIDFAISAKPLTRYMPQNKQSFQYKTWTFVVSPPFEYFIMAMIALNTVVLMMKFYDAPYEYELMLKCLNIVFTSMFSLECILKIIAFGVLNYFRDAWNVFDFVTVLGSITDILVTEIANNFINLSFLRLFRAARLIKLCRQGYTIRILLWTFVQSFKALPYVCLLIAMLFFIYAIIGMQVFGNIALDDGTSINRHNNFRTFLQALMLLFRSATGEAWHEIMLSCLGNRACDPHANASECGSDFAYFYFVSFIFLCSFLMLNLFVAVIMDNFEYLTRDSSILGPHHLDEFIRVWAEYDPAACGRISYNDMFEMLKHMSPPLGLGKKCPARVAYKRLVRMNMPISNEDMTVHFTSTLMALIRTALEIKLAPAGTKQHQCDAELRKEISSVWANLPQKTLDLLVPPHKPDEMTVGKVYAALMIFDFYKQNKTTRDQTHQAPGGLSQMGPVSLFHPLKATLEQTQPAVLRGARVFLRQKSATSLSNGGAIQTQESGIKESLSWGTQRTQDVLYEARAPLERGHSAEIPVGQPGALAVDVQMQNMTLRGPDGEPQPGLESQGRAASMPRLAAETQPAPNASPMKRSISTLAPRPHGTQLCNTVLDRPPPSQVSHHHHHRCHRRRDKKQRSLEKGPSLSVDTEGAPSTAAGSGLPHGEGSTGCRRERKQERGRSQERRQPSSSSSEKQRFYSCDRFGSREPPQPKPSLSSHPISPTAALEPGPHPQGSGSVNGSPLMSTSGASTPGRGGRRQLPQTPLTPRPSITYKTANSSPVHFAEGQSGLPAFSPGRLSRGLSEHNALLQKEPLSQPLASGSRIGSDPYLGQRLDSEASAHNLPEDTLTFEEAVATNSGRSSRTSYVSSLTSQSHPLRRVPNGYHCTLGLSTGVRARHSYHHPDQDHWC
T2 sequence (P54290 25-944 partner limits assumed): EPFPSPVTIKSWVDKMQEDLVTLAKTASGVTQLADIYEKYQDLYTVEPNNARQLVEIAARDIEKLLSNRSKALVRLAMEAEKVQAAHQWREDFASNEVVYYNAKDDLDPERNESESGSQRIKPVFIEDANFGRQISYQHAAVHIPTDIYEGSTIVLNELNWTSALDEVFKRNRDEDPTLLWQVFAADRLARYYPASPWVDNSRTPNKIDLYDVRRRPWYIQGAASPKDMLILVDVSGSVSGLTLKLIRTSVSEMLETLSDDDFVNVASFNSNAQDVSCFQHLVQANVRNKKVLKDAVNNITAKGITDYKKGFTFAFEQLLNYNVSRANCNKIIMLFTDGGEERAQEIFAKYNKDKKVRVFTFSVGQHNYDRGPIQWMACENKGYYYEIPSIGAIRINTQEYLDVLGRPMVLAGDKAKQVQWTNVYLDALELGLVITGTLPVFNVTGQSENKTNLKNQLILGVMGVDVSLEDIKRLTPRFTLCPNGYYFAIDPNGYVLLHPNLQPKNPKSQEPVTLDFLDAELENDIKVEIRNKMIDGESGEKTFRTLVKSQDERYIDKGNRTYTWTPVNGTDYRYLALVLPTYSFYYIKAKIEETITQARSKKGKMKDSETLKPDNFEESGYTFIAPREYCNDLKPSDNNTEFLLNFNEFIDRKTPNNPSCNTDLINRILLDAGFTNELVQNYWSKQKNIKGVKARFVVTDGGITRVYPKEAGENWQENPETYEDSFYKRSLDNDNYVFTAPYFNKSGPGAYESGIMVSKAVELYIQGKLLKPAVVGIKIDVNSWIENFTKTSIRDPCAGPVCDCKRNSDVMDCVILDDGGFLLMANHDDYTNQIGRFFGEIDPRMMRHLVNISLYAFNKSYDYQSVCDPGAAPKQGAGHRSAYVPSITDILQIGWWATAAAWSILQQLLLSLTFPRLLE
T2 sequence (P54290 945-1091 partner limits assumed): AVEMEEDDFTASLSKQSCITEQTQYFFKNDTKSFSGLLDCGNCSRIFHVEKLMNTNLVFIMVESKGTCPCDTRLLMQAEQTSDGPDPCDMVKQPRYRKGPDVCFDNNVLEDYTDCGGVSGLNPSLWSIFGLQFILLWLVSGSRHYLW
T2 sequence (P54283 whole entry partner): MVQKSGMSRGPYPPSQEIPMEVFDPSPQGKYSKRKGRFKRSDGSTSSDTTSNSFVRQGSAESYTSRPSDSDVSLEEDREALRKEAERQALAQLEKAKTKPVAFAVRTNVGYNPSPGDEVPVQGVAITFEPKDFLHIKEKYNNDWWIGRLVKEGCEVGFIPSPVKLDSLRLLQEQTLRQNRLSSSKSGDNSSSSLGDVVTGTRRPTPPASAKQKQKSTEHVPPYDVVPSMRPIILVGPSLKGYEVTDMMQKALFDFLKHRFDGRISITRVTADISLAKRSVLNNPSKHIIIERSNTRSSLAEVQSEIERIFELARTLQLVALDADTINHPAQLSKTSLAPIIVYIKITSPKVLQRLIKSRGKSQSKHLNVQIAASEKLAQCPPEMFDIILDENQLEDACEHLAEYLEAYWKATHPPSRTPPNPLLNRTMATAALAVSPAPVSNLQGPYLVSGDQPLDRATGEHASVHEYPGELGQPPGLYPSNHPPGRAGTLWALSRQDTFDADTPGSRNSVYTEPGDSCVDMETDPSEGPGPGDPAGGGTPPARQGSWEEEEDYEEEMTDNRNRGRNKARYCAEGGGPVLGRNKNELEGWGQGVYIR
Method: (§1) N-type calcium channel blocking activity was assayed in human embryonic kidney cells, HEK 293, stably transfected with the rat brain N-type calcium channel subunits (α1B+α2δ+β1b cDNA subunits). Alternatively, N-type calcium channels (α1B+α2δ+β1b cDNA subunits), L-type channels (α1C+α2δ+β1b cDNA subunits) and P/Q-type channels (α1A+α2δ+β1b cDNA subunits) were transiently expressed in HEK 293 cells. Briefly, cells were cultured in Dulbecco's modified eagle medium (DMEM) supplemented with 10% fetal bovine serum, 200 U/ml penicillin and 0.2 mg/ml streptomycin at 37° C. with 5% CO2. At 85% confluency cells were split with 0.25% trypsin/1 mM EDTA and plated at 10% confluency on glass coverslips. At 12 hours the medium was replaced and the cells transiently transfected using a standard calcium phosphate protocol and the appropriate calcium channel cDNAs. Fresh DMEM was supplied and the cells transferred to 28° C./5% CO2. Cells were incubated for 1 to 2 days to whole cell recording.
(§2) Whole cell patch clamp experiments were performed using an Axopatch 200B amplifier (Axon Instruments, Burlingame, Calif.) linked to a personal computer equipped with pCLAMP software. The external and internal recording solutions contained, respectively, 5 mM BaCl2, 1 mM MgCl2, 10 mM HEPES, 40 mM TEACl, 10 mM glucose, 87.5 mM CsCl (pH 7.2) and 108 mM CsMS, 4 mM MgCl2, 9 mM EGTA, 9 mM HEPES (pH 7.2). Currents were typically elicited from a holding potential of −80 mV to +10 mV using Clampex software (Axon Instruments). Typically, currents were first elicited with low frequency stimulation (0.03 Hz) and allowed to stabilize prior to application of the compounds. The compounds were then applied during the low frequency pulse trains for two to three minutes to assess tonic block, and subsequently the pulse frequency was increased to 0.2 Hz to assess frequency dependent block. Data were analyzed using Clampfit (Axon Instruments) and SigmaPlot 4.0 (Jandel Scientific).

[3] = biological target: P/Q-type channels (α1A+α2δ+β1b cDNA subunits) (UniProt P54282); experiment: Whole cell patch clamp, tonic and frequency dependent block, P/Q-type channels in HEK 293 (Example 5)
Method: as §1, §2
(§3) Tables 2 and 3 show the results of similar experiments conducted with P/Q-type and L-type channels expressed in HEK 293 cells.

[4] = biological target: T3, L-type channels (α1C+α2δ+β1b cDNA subunits) (UniProt P22002); experiment: Whole cell patch clamp, tonic and frequency dependent block, L-type channels in HEK 293 (Example 5)
T3 construct: other: α1C (L-type), 100 nM, 0.03 Hz; other: α1C (L-type), 100 nM, 0.2 Hz; other: α1C (L-type), 0.03 Hz; other: α1C (L-type), 0.2 Hz
Method: as §1, §2, §3

[5] = Table 4 summary, 0.2 Hz, N-type, unit not given in Table 4 (μM in Table 1), read-out: N (IC50 values)
[6] = α1B (N-type), 0.03 Hz, read-out: Estimated IC50 (μM) 0.03 Hz
[7] = α1B (N-type), 0.2 Hz, read-out: Estimated IC50 (μM) 0.2 Hz
[8] = Table 4 summary, 0.2 Hz, P/Q-type, unit not given in Table 4 (μM in Table 2), read-out: P/Q (IC50 values)
[9] = α1A (P/Q-type), 0.03 Hz, read-out: Estimated IC50 (μM) 0.03 Hz
[10] = α1A (P/Q-type), 0.2 Hz, read-out: Estimated IC50 (μM) 0.2 Hz
[11] = Table 4 summary, 0.2 Hz, L-type, unit not given in Table 4 (μM in Table 3), read-out: L (IC50 values)
[12] = α1C (L-type), 0.03 Hz, read-out: Estimated IC50 (μM) 0.03 Hz
[13] = α1C (L-type), 0.2 Hz, read-out: Estimated IC50 (μM) 0.2 Hz

T1 sequence (Q02294 whole entry): as the sequence (Q02294 whole entry) above
T1 sequence (P54290 25-944 partner limits assumed): as the sequence (P54290 25-944 partner limits assumed) above
T1 sequence (P54290 945-1091 partner limits assumed): as the sequence (P54290 945-1091 partner limits assumed) above
T1 sequence (P54283 whole entry partner): as the sequence (P54283 whole entry partner) above

| IC50 [1] | IC50 [2, 5] | % Block (100 nM) 0.03 Hz ([2]; α1B (N-type)) | % Block (100 nM) 0.2 Hz ([2]; α1B (N-type)) | IC50 [2, 6] | IC50 [2, 7] | IC50 [3, 8] | % Block (100 nM) 0.03 Hz ([3]; α1A (P/Q-type), 0.03 Hz) | % Block (100 nM) 0.2 Hz ([3]; α1A (P/Q-type), 0.2 Hz) | IC50 [3, 9] | IC50 [3, 10] | IC50 [4, 11] | % Block (100 nM) 0.03 Hz ([4]; α1C (L-type), 0.03 Hz) | % Block (100 nM) 0.2 Hz ([4]; α1C (L-type), 0.2 Hz) | IC50 [4, 12] | IC50 [4, 13] | SMILES |
| --- | --- | --- | --- | --- | --- | --- | --- | --- | --- | --- | --- | --- | --- | --- | --- | --- |
| 14200 nM | – | – | – | – | – | – | – | – | – | – | – | – | – | – | – | O=C(C(c1ccccc1)C1CCCCC1)N1CCN(Cc2ccccc2)CC1 (stereo not shown) [Φ, Cy; CHCO; N; 1; Φ] |
| 2000 to 3000 nM | – | – | – | – | – | – | – | – | – | – | – | – | – | – | – | c1ccc(C(CCN2CCC(NCC3CCCCC3)CC2)c2ccccc2)cc1 [Φ, Φ; CH(CH2)2; CHNH; 1; Cy] |
| 3100 nM | – | – | – | – | – | – | – | – | – | – | – | – | – | – | – | c1ccc(CCN2CCN(CCCCCC(c3ccccc3)C3CCCCC3)CC2)cc1 (stereo not shown) [Φ, Cy; CH(CH2)5; N; 2; Φ] |
| – | 0.15 µM | 20% | 41% | 0.44 µM | 0.15 µM | 0.12 µM | 20% | 45% | 0.45 µM | 0.12 µM | 0.83 µM | 11% | 21% | 1.6 µM | 0.83 µM | Nc1ccc(/C=C/C(=O)N2CCN(C(=O)CCCCC(c3ccccc3)c3ccccc3)CC2)cc1 [SH-134] |
| – | 0.09 µM | 24% | 54% | 0.39 µM | 0.09 µM | 0.07 µM | 25% | 57% | 0.46 µM | 0.07 µM | 0.15 µM | 26% | 44% | 0.29 µM | 0.15 µM | COc1ccc(CN2CCN(C(c3ccc(F)cc3)c3ccc(F)cc3)CC2)c(OC)c1OC [39-36-1 Lomerizine, Lomerizine, reference compound] |
| – | 0.07 µM | 29% | 60% | 0.32 µM | 0.07 µM | 0.11 µM | 35% | 52% | 0.31 µM | 0.11 µM | 0.4 µM | 11% | 22% | 2.1 µM | 0.4 µM | COc1cc(C(=O)N2CCN(C(c3ccc(F)cc3)c3ccc(F)cc3)CC2)cc(OC)c1OC [39-36-2] |
| – | 0.13 µM | 9% | 45% | 1.27 µM | 0.13 µM | 0.13 µM | 16% | 44% | 0.55 µM | 0.13 µM | 0.74 µM | 8% | 14% | 2.06 µM | 0.74 µM | O=C(/C=C/c1ccc2c(c1)OCO2)N1CCN(C(=O)CCCCC(c2ccccc2)c2ccccc2)CC1 [SH-123B] |
| 35000 nM | – | – | – | – | – | – | – | – | – | – | – | – | – | – | – | O=C(C(c1ccccc1)C1CCCCC1)N1CCN(CC(c2ccccc2)c2ccccc2)CC1 (stereo not shown) [Φ, Cy; CHCO; N; 1; CHΦ2] |
| 3000 to 4000 nM | – | – | – | – | – | – | – | – | – | – | – | – | – | – | – | c1ccc(C(CN2CCC(NCC3CCCCC3)CC2)c2ccccc2)cc1 [Φ, Φ; CHCH2; CHNH; 1; Cy] |

| SMILES | IC50 [1] | IC50 [2, 5] | % Block (100 nM) 0.03 Hz ([2]; α1B (N-type)) | % Block (100 nM) 0.2 Hz ([2]; α1B (N-type)) | IC50 [2, 6] | IC50 [2, 7] | IC50 [3, 8] | % Block (100 nM) 0.03 Hz ([3]; α1A (P/Q-type), 0.03 Hz) | % Block (100 nM) 0.2 Hz ([3]; α1A (P/Q-type), 0.2 Hz) | IC50 [3, 9] | IC50 [3, 10] | IC50 [4, 11] | % Block (100 nM) 0.03 Hz ([4]; α1C (L-type), 0.03 Hz) | % Block (100 nM) 0.2 Hz ([4]; α1C (L-type), 0.2 Hz) | IC50 [4, 12] | IC50 [4, 13] |
| --- | --- | --- | --- | --- | --- | --- | --- | --- | --- | --- | --- | --- | --- | --- | --- | --- |
| c1ccc(C(CN2CCN(CC3CCCCC3)CC2)C2CCCCC2)cc1 (stereo not shown) [Φ, Cy; CHCH2; N; 1; Cy] | 20200 nM | – | – | – | – | – | – | – | – | – | – | – | – | – | – | – |
| O=C(CCCCC(c1ccccc1)C1CCCCC1)N1CCN(CC=Cc2ccccc2)CC1 (stereo not shown) [Φ, Cy; CH(CH2)4CO; N; 1; CH═CHΦ] | 3900 nM | – | – | – | – | – | – | – | – | – | – | – | – | – | – | – |

— patent publication US7064128B2, “Preferentially substituted calcium channel blockers” (NeuroMed Technologies, Inc., priority 1998, dated 2006)
